Data as given in PMC5177656, “Cytosolic Triosephosphate Isomerase from Arabidopsis thaliana Is Reversibly Modified by Glutathione on Cysteines 127 and 218” (Frontiers in Plant Science, 2016).

Assays:
GRXC2 = GRXC2 (Arabidopsis thaliana, UniProt Q9FNE2); test: GSH-disulfide transhydrogenase assay coupled to glutathione reductase, NADPH at […] nm; assay type: biochemical; conditions: 0.7 mM HED, 1 mM GSH, 0.2 mM NADPH, pH 8.0, 30°C
GRXC1 = GRXC1 (Arabidopsis thaliana, UniProt Q8L8T2); test: as above; assay type: biochemical; conditions: 0.7 mM HED, 1 mM GSH, 0.2 mM NADPH, pH 8.0, 30°C
GRXC1, sequence (Q8L8T2 whole entry): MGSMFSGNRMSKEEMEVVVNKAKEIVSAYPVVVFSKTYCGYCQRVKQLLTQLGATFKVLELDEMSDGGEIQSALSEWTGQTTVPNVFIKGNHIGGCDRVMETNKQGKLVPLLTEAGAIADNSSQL

GRXC2, sequence (Q9FNE2 whole entry): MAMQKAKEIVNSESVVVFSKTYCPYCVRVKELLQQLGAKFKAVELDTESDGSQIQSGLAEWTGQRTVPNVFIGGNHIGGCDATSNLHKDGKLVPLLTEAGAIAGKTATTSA

SMILES: OCCSSCCO [HED]
- GSH-disulfide transhydrogenase assay coupled to glutathione reductase, NADPH at (GRXC2): specific activities of recombinant GRXs were measured using the artificial substrate HED
- GSH-disulfide transhydrogenase assay coupled to glutathione reductase, NADPH at (GRXC1): specific activities of recombinant GRXs were measured using the artificial substrate HED
